# According to US20240140958A1, “FUSED QUADRACYCLIC COMPOUNDS, COMPOSITIONS AND USES THEREOF” (Tabomedex Biosciences, Inc., priority 2021, published 2024):
# How the values were obtained:
# [1] = target: T1, MAPKAPK2 Recombinant Human Protein (Homo sapiens, UniProt P49137); assay: MK2 kinase assay (Z'-LYTE kinase assay kit); settings: inhibition of MK2 biochemical activity; 90 min incubation at room temperature
# T1 construct: purchased ThermoFisher pv3317
# Description: Materials and Reagents for Measuring Inhibition of MK2 Biochemical Activity: • 1) Assay plate: 384 Well Low Volume Black Round Bottom Polystyrene NBS Microplate (Corning, Cat.No. 4514) • 2) MK2 kinase assay kit: Z' LYTE KINASE ASSAY KIT (ThermoFisher, Cat.No. pv3177) • 3) MAPKAPK2 Recombinant Human Protein (ThermoFisher, Cat.No. pv3317) • 4) DMSO (Vetec, Cat.No. V900090) • 5) DTT (Sigma, Cat.No. D0632)
# MK2 Kinase Assay Procedure: • 1) Dispense 5 μl Kinase/Peptide Mixture to each wells of 384-well plate • 2) Add 2.5 μl 4× Test Compound to each well • 3) Add 2.5 μl 4× ATP Solution to each well • 4) After 90 minutes incubation at room temperature, add 5 μl Development Solution to each well • 5) After 60 minutes incubation at room temperature, add 5 μl stop Solution to each well • 6) Measure the Coumarin (Ex. 400 nm, Em. 445 nm) and Fluorescein (Ex. 400 nm, Em. 520 nm) emission signals on an Envision plate reader (PerkinElmer)
# THP-1 cells = assay: THP-1 cell assay: LPS-stimulated pSer78-Hsp27 ELISA; format: cell-based; settings: Homo sapiens, PMA-differentiated THP-1 cells, compound 60 min before 20 ng/mL LPS for 30 min
# Source text: Materials and Reagents for Measuring Activity in THP-1 Cells: • 1) THP-1 cells (Cell bank of Shanghai) • 2) PMA (Sigma, Cat.No. P1585) • 3) LPS (Sigma, Cat.No. L4516) • 4) 96-well tissue-culture treated plate (Grenier, Cat.No. 655180) • 5) FBS (Thermofisher, Cat.No. 10100147) • 6) Complete EDTA-free protease inhibitor Cocktail (Roche, Cat.No. 4693132001) • 7) PhosSTOP (Roche, Cat.No. 4906845001) • 8) Phosphor-Hsp27 (Ser78) Sandwich Elisa kit (CST, Cat.No. 7295)
# Cell Assay Procedure: • 1) Day 0: THP-1 cells are seeded at 50K/well in complete media (1640+10% FBS+50 μM β-ME)+20 ng/mL PMA in 96-well plate • 2) Day 1: PMA containing media is removed after 24 h incubation (37° C./5% CO2), and replaced with complete growth media. Cells are incubated an additional 48 h to recover. • 3) Day 3: Cells are incubated with or without compounds at indicated concentrations for 60 min, prior to addition of 20 ng/mL LPS. Cells are stimulated for 30 min with LPS, washed 1× with ice cold PBS, lysed on ice in Lysis buffer provided in ELISA kit with Roche protease & phosphatase inhibitors. Extracts are clarified by refrigerated centrifugation & stored at −80° C. until pHsp27/total Hsp27 ELISAs • 4) Day 3 or Day 4: Cell Signaling Technology ELISA is run for pSer78-Hsp27 on lysates diluted to approximately 2.5 μg/well. • 5) The absorbance at 450 nm was read in a SpectraMax plus plate reader (Molecular Devices). Data was processed using GraphPad prism 8.0.
# T1 sequence (P49137 whole entry): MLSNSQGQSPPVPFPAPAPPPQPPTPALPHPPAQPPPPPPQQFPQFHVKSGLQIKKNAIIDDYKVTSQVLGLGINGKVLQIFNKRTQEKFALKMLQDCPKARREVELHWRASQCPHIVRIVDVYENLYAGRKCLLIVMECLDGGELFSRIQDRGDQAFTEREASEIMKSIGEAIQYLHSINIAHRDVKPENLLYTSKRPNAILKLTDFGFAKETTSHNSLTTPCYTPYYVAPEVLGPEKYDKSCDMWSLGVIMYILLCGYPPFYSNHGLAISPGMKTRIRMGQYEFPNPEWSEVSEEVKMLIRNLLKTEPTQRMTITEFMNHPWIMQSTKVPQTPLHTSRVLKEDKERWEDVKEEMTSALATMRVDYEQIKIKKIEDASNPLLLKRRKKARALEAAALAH
IC50 [1] [nM],IC50 (THP-1 cells) [nM],SMILES
< 50,500 to 1000,CN1CCC(NC(=O)c2ccc3c(c2)Cn2cc(-c4ccc(C#N)cc4)cc2-c2nccn2-3)C1 (centres unmarked) [Example 105]
< 50,< 50,CN1CC(N2C(=O)CN(c3ccc4c(c3)Cn3cc(-c5ccc(C#N)cc5)cc3-c3nccn3-4)C2=O)C1 [Example 69]
–,200 to 300,"CNC[C@@H]1CCN1C(=O)c1ccc2c(c1)Cn1cc(-c3ccc(C#N)cc3)cc1-c1nccn1-2 [Example 137, (S)-4-(7-(2-((Methylamino)methyl)azetidine-1-carbonyl)-9H-benzo[e]imidazo [2,1-c]pyrrolo[1,2-a][1,4]diazepin-12-yl)benzonitrile]"
< 50,< 50,CN(C)C1CCN(C(=O)Nc2ccc3c(c2)Cn2cc(-c4ccc(C#N)cc4)cc2-c2nccn2-3)C1 (centres unmarked) [Example 72]
50 to 100,100 to 200,"CC(C)N1CCC(C(=O)Nc2ccc3c(c2)Cn2cc(-c4ccc(C#N)cc4)cc2-c2nccn2-3)C1 (centres unmarked) [Example 77, N-(12-(4-Cyanophenyl)-9H-benzo[e]imidazo[2,1-c]pyrrolo[1,2-a][1,4]diazepin-7-yl)-1-isopropylpyrrolidine-3-carboxamide]"
50 to 100,100 to 200,N#Cc1ccc(-c2cc3n(c2)Cc2cc(N4C[C@@H](CNC5COC5)CC4=O)ccc2-n2ccnc2-3)cc1 [Example 14]
< 50,< 50,"CN(C)CC[C@H]1CCN(c2ccc3c(c2)Cn2cc(-c4ccc(C#N)cc4)cc2-c2nccn2-3)C1=O (single isomer, unassigned) [Example 41]"
< 50,500 to 1000,"CN(C)CCn1ccn(-c2ccc3c(c2)Cn2cc(-c4ccc(C#N)cc4)cc2-c2nccn2-3)c1=O [Example 70, 4-(7-(3-(2-(Dimethylamino)ethyl)-2-oxo-2,3-dihydro-1H-imidazol-1-yl)-9H-benzo[e]imidazo[2,1-c]pyrrolo[1,2-a][1,4]diazepin-12-yl)benzonitrile]"
< 50,< 50,CN(C)[C@H]1CCN(C(=O)Nc2ccc3c(c2)Cn2cc(-c4ccc(C#N)cc4)cc2-c2nccn2-3)C1 [Example 73]
< 50,< 50,CC(C)(N)CN1C(=O)CN(c2ccc3c(c2)Cn2cc(-c4ccc(C#N)cc4)cc2-c2nccn2-3)C1=O [Example 68]
50 to 100,200 to 300,"N#Cc1ccc(-c2cc3n(c2)Cc2cc(N4C[C@H]5CNC[C@H]5C4=O)ccc2-n2ccnc2-3)cc1 (relative stereo) [Example 30, cis-4-(7-(1-oxohexahydropyrrolo[3,4-c]pyrrol-2(1H)-yl)-9H-benzo[e]imidazo [2,1-c]pyrrolo[1,2-a][1,4]diazepin-12-yl)benzonitrile]"
50 to 100,400 to 500,N#Cc1ccc(-c2cc3n(c2)Cc2cc(N4C[C@@H](CNC5(CO)CC5)CC4=O)ccc2-n2ccnc2-3)cc1 [Example 16]
50 to 100,100 to 200,"CN(C)CCNC(=O)c1ccc2c(c1)Cn1cc(-c3ccc(C#N)cc3)cc1-c1nccn1-2 [Example 101, 12-(4-Cyanophenyl)-N-(2-(dimethylamino)ethyl)-9H-benzo[e]imidazo[2,1-c]pyrrolo[1,2-a][1,4]diazepine-7-carboxamide]"
< 50,200 to 300,"CN1CC2(CC(=O)N(c3ccc4c(c3)Cn3cc(-c5ccc(C#N)cc5)cc3-c3nccn3-4)C2)C1 [Example 23, 4-(7-(2-Methyl-7-oxo-2,6-diazaspiro[3.4]octan-6-yl)-9H-benzo[e]imidazo [2,1-c]pyrrolo[1,2-a][1,4]diazepin-12-yl)benzonitrile]"
< 50,50 to 100,CC1(C)CCN1C[C@H]1CC(=O)N(c2ccc3c(c2)Cn2cc(-c4ccc(C#N)cc4)cc2-c2nccn2-3)C1 [Example 19]
50 to 100,300 to 400,CN(C)CC1CC(=O)N(c2cc3c(cc2F)-n2ccnc2-c2cc(-c4ccc(C#N)cc4)cn2C3)C1 (stereo in doubt) [Example 91]

IC50 [1] [nM],IC50 (THP-1 cells) [nM],SMILES
< 50,300 to 400,CC(C)(N)[C@@H]1CC(=O)N(c2ccc3c(c2)Cn2cc(-c4ccc(C#N)cc4)cc2-c2nccn2-3)C1 [Example 53]
< 50,< 50,"CN(C)CCN1CCN(c2ccc3c(c2)Cn2cc(-c4ccc(C#N)cc4)cc2-c2nccn2-3)C1=O [Example 57, 4-(7-(3-(2-(Dimethylamino)ethyl)-2-oxoimidazolidin-1-yl)-9H-benzo[e]imidazo[2,1-c]pyrrolo[1,2-a][1,4]diazepin-12-yl)benzonitrile]"
50 to 100,100 to 200,CN(CCO)C[C@H]1CC(=O)N(c2ccc3c(c2)Cn2cc(-c4ccc(C#N)cc4)cc2-c2nccn2-3)C1 [Example 11]
< 50,< 50,"CN(C)C[C@H]1CCN(c2ccc3c(c2)Cn2cc(-c4ccc(C#N)cc4)cc2-c2nccn2-3)C1=O (single isomer, unassigned) [Example 35]"
50 to 100,100 to 200,"CN(C)CCn1cnn(-c2ccc3c(c2)Cn2cc(-c4ccc(C#N)cc4)cc2-c2nccn2-3)c1=O [Example 79, 4-(7-(4-(2-(Dimethylamino)ethyl)-5-oxo-4,5-dihydro-1H-1,2,4-triazol-1-yl)-9H-benzo[e]imidazo[2,1-c]pyrrolo[1,2-a][1,4]diazepin-12-yl)benzonitrile]"
< 50,< 50,CC(C)(C)NC[C@@H]1CN(c2ccc3c(c2)Cn2cc(-c4ccc(C#N)cc4)cc2-c2nccn2-3)C(=O)O1 [Example 4]
< 50,50 to 100,"CN(CCO)C[C@H]1CCN(c2ccc3c(c2)Cn2cc(-c4ccc(F)cc4)cc2-c2nccn2-3)C1=O [Example 90, (R)-1-(12-(4-Fluorophenyl)-9H-benzo[e]imidazo[2,1-c]pyrrolo[1,2-a][1,4]diazepin-7-yl)-3-(((2-hydroxyethyl)(methyl)amino)methyl)pyrrolidin-2-one]"
–,< 50,"[2H]C([2H])([2H])N(C[C@@H]1CCN1C(=O)c1ccc2c(c1)Cn1cc(-c3ccc(C#N)cc3)cc1-c1nccn1-2)C([2H])([2H])[2H] [Example 120, (S)-4-(7-(2-((Bis(methyl-d3)amino)methyl)azetidine-1-carbonyl)-9H-benzo[e]imidazo[2,1-c]pyrrolo[1,2-a][1,4]diazepin-12-yl)benzonitrile]"
50 to 100,–,"Cc1nnc2n1-c1ccc(N3CCC(CCN(C)C)C3=O)cc1Cn1cc(-c3ccc(C#N)cc3)cc1-2 (centres unmarked) [Example 81, 4-(7-(3-(2-(Dimethylamino)ethyl)-2-oxopyrrolidin-1-yl)-3-methyl-9H-benzo[e]pyrrolo[1,2-a][1,2,4]triazolo[3,4-c][1,4]diazepin-12-yl)benzonitrile]"
< 50,–,"CN(C)CCC1CCN(c2ccc3c(c2)Cn2cc(-c4ccc(C#N)cc4)cc2-c2nccn2-3)C1=O (centres unmarked) [Example 40, 4-(7-(3-(2-(Dimethylamino)ethyl)-2-oxopyrrolidin-1-yl)-9H-benzo[e]imidazo [2,1-c]pyrrolo[1,2-a][1,4]diazepin-12-yl)benzonitrile]"
200 to 300,–,Cc1nnc2n1CCN(C(=O)c1ccc3c(c1)Cn1cc(-c4ccc(C#N)cc4)cc1-c1nccn1-3)C2 [Example 108]
200 to 300,–,CN[C@H]1CC[C@H](N(C)C(=O)c2ccc3c(c2)Cn2cc(-c4ccc(C#N)cc4)cc2-c2nccn2-3)C1 [Example 133]
50 to 100,–,CN(CC(CN)CO)C(=O)c1ccc2c(c1)Cn1cc(-c3ccc(C#N)cc3)cc1-c1nccn1-2 (centres unmarked) [Example 136]
50 to 100,–,"CN(C)C[C@@H]1[C@@H]2CN(c3ccc4c(c3)Cn3cc(-c5ccc(C#N)cc5)cc3-c3nccn3-4)C(=O)[C@H]12 [Example 45, 4-(7-((1R,5S,6R)-6-((Dimethylamino)methyl)-2-oxo-3-azabicyclo[3.1.0]hexan-3-yl)-9H-benzo[e]imidazo[2,1-c]pyrrolo[1,2-a][1,4]diazepin-12-yl)benzonitrile]"
100 to 200,–,CN(C)CC(C)(C)NC(=O)c1ccc2c(c1)Cn1cc(-c3ccc(C#N)cc3)cc1-c1nccn1-2 [Example 130]
